Target: T1, hMAO-A (Homo sapiens, UniProt P21397)
T1 construct: purchased Sigma M7316
T1 sequence (P21397 1-527): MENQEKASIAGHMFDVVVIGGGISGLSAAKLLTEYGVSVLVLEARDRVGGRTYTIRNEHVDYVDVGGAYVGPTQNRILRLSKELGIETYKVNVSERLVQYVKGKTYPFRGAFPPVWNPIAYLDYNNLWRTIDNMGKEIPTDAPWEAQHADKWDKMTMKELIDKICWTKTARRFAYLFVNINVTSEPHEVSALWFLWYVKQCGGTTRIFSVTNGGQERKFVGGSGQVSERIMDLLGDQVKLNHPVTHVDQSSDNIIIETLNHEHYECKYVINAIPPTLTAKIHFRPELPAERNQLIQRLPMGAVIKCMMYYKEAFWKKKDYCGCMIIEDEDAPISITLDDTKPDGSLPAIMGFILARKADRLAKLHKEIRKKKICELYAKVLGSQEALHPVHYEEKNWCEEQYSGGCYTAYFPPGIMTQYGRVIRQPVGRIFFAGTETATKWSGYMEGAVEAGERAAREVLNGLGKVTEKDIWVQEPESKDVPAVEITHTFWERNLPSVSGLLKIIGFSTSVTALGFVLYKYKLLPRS
Test: MAO-A inhibition assay
Assay type: biochemical
Details: No = no inhibition; for hMAO-A inhibition up to 10 μM: printed in the IC50 hMAO-A column
Protocol: MAO-A (Sigma M7316) and MAO-B (Sigma M7441) inhibition assays were conducted in 96-well micro-plates according to the method described by Zhou et al. [Analytical Biochemistry 253, 169-174, 1997]. […] Reactions were initiated by the addition of a pre-mixed solution of tyramine, horseradish peroxidase and Amplex Red, and were allowed to proceed at 37° C. for 30 min. Enzyme activities were determined by measuring absorbance at 570 nm (SpectralMax Plate reader), absorbance of oxidized Amplex Red generated by this horseradish peroxidase-coupled reaction. Nonspecifically formed products were determined in the presence of 2 and 10 µM clorgyline and deprenyl for MAO-A and MAO-B, respectively. IC50 values were determined by fitting concentration-inhibition data to sigmoidal dose-response curves with two-floating parameters: IC50 and Hill coefficient.

COC(=O)c1cccc(COc2ccc3c(=O)c(-c4ccc(O)cc4)coc3c2)c1 [PT-33, methyl 3-{[3-(4-hydroxyphenyl)-4-oxochromen-7-yloxy]methyl}benzoate]
hMAO-A inhibition up to 30 μM (up to 30 μM): No

O=c1c(-c2ccc(O)cc2)coc2cc(OCc3cc(-c4cccc(C(F)(F)F)c4)on3)ccc12 [PT-45, 3-(4-hydroxyphenyl)-7-({5-[3-(trifluoromethyl)phenyl]isoxazol-3-yl}methoxy)chromen-4-one]
hMAO-A inhibition up to 10 μM: No

COC(=O)c1cnc(COc2ccc3c(=O)c(-c4ccc(O)cc4)coc3c2)o1 [PT-47, methyl 2-{[3-(4-hydroxyphenyl)-4-oxochromen-7-yloxy]methyl}-1,3-oxazole-5-carboxylate]
hMAO-A inhibition up to 10 μM: No

O=C(O)c1cnc(COc2ccc3c(=O)c(-c4ccc(O)cc4)coc3c2)o1 [PT-49, 2-{[3-(4-hydroxyphenyl)-4-oxochromen-7-yloxy]methyl}-1,3-oxazole-5-carboxylic acid]
hMAO-A inhibition up to 10 μM: No

O=c1c(-c2ccc(O)cc2)coc2cc(OC[C@H](O)CNCc3cccc(C(F)(F)F)c3)ccc12 [PT-53, 7-[(2R)-2-hydroxy-3-({[3-(trifluoromethyl)phenyl]methyl}amino)propoxy]-3-(4-hydroxyphenyl)chromen-4-one]
hMAO-A inhibition up to 10 μM: No

O=c1c(-c2ccc(O)cc2)coc2cc(OCNCc3cccc(C(F)(F)F)c3)ccc12 [PT-54, 3-(4-hydroxyphenyl)-7-[({[3-(trifluoromethyl)phenyl]methyl}amino)methoxy]chromen-4-one]
hMAO-A inhibition up to 10 μM: No

O=c1c(-c2ccc(O)cc2)coc2cc(OC[C@H](O)CNCc3cc(F)cc(F)c3)ccc12 [PT-55, 7-((2R)-3-{[(3,5-difluorophenyl)methyl]amino}-2-hydroxypropoxy)-3-(4-hydroxyphenyl)chromen-4-one]
hMAO-A inhibition up to 10 μM: No

C[C@@H](NCC(=O)COc1ccc2c(=O)c(-c3ccc(O)cc3)coc2c1)c1ccc(F)cc1 [PT-56, 7-(3-{[(1R)-1-(4-fluorophenyl)ethyl]amino}-2-oxopropoxy)-3-(4-hydroxyphenyl)chromen-4-one]
hMAO-A inhibition up to 10 μM: 36%

O=c1c(-c2ccc(O)cc2)coc2cc(OCCCc3ccccc3)ccc12 [PT-57, 3-(4-hydroxyphenyl)-7-(3-phenylpropoxy)chromen-4-one]
hMAO-A inhibition up to 10 μM: No

O=c1c(-c2ccc(O)cc2)coc2cc(OCc3nnc(-c4cccc(F)c4)o3)ccc12 [PT-58, 7-{[5-(3-fluorophenyl)(1,3,4-oxadiazol-2-yl)]methoxy}-3-(4-hydroxyphenyl)chromen-4-one]
hMAO-A inhibition up to 10 μM: No

O=c1c(-c2ccc(O)cc2)coc2cc(OCc3nnc(-c4cccc(C(F)(F)F)c4)o3)ccc12 [PT-60, 3-(4-hydroxyphenyl)-7-({5-[3-(trifluoromethyl)phenyl](1,3,4-oxadiazol-2-yl)}methoxy)chromen-4-one]
hMAO-A inhibition up to 10 μM: No

O=c1c(-c2ccc(O)cc2)coc2cc(OCc3cnc(-c4ccccc4)o3)ccc12 [PT-61, 3-(4-hydroxyphenyl)-7-[(2-phenyl(1,3-oxazol-5-yl))methoxy]chromen-4-one]
hMAO-A inhibition up to 10 μM: No

O=c1c(-c2ccc(O)cc2)coc2cc(OCc3nnc(-c4ccccc4Cl)s3)ccc12 [PT-64, 7-{[5-(2-chlorophenyl)(1,3,4-thiadiazol-2-yl)]methoxy}-3-(4-hydroxyphenyl)chromen-4-one]
hMAO-A inhibition up to 10 μM: No

Cc1nc(-c2ccc(C(F)(F)F)cc2)sc1COc1ccc2c(=O)c(-c3ccc(C#N)cc3)coc2c1 [PT-65, 4-[7-({4-methyl-2-[4-(trifluoromethyl)phenyl](1,3-thiazol-5-yl)}methoxy)-4-oxochromen-3-yl]benzenecarbonitrile]
hMAO-A inhibition up to 10 μM: No

Cc1nc(-c2ccc(C(F)(F)F)cc2)sc1COc1ccc2c(=O)c(-c3ccc(NS(C)(=O)=O)cc3)coc2c1 [PT-66, 3-{4-[(methylsulfonyl)amino]phenyl}-7-({4-methyl-2-[4-(trifluoromethyl)phenyl](1,3-thiazol-5-yl)}methoxy)chromen-4-one]
hMAO-A inhibition up to 10 μM: No

COc1ccc(-c2coc3cc(OCc4sc(-c5ccc(C(F)(F)F)cc5)nc4C)ccc3c2=O)cn1 [PT-67, 3-(6-methoxy(3-pyridyl))-7-({4-methyl-2-[4-(trifluoromethyl)phenyl](1,3-thiazol-5-yl)}methoxy)chromen-4-one]
hMAO-A inhibition up to 10 μM: No

N#Cc1ccc(-c2coc3cc(OCc4nnc(-c5cc(F)cc(C(F)(F)F)c5)o4)ccc3c2=O)cc1 [PT-68, 4-[7-({5-[5-fluoro-3-(trifluoromethyl)phenyl](1,3,4-oxadiazol-2-yl)}methoxy)-4-oxochromen-3-yl]benzenecarbonitrile]
hMAO-A inhibition up to 10 μM: No

N#Cc1ccc(-c2coc3cc(OCc4cc(-c5cccc(C(F)(F)F)c5)no4)ccc3c2=O)cc1 [PT-69, 4-[4-oxo-7-({3-[3-(trifluoromethyl)phenyl]isoxazol-5-yl}methoxy)chromen-3-yl]benzenecarbonitrile]
hMAO-A inhibition up to 10 μM: No

CS(=O)(=O)Nc1ccc(-c2coc3cc(OCc4noc(-c5cc(F)cc(C(F)(F)F)c5)n4)ccc3c2=O)cc1 [PT-70, 7-({5-[3-fluoro-5-(trifluoromethyl)phenyl](1,2,4-oxadiazol-3-yl)}methoxy)-3-{4-[(methylsulfonyl)amino]phenyl}chromen-4-one]
hMAO-A inhibition up to 10 μM: No

CS(=O)(=O)c1ccc(-c2coc3cc(OCc4noc(-c5cc(F)cc(C(F)(F)F)c5)n4)ccc3c2=O)cc1 [PT-71, 7-({5-[3-fluoro-5-(trifluoromethyl)phenyl](1,2,4-oxadiazol-3-yl)}methoxy)-3-[4-(methylsulfonyl)phenyl]chromen-4-one]
hMAO-A inhibition up to 10 μM: No

CC(=O)c1cccc(-c2coc3cc(OCc4noc(-c5cc(F)cc(C(F)(F)F)c5)n4)ccc3c2=O)c1 [PT-73, 3-(3-acetylphenyl)-7-({5-[3-fluoro-5-(trifluoromethyl)phenyl](1,2,4-oxadiazol-3-yl)}methoxy)chromen-4-one]
hMAO-A inhibition up to 10 μM: No

O=c1c(-c2ccc(O)cc2)coc2cc(OCc3nnc(-c4cc(F)cc(C(F)(F)F)c4)o3)ccc12 [PT-74, 7-({5-[3-fluoro-5-(trifluoromethyl)phenyl](1,3,4-oxadiazol-2-yl)}methoxy)-3-(4-hydroxyphenyl)chromen-4-one]
hMAO-A inhibition up to 10 μM: No

O=c1c(-c2ccc(O)cc2)coc2cc(OCc3nnc(-c4ccc(F)cc4)o3)ccc12 [PT-81, 7-{[5-(4-fluorophenyl)(1,3,4-oxadiazol-2-yl)]methoxy}-3-(4-hydroxyphenyl)chromen-4-one]
hMAO-A inhibition up to 10 μM: No

O=c1c(-c2ccc(O)cc2)coc2cc(OCc3ccncc3)ccc12 [PT-82, 3-(4-hydxoxyphenyl)-7-(4-pyridylmethoxy)chromen-4-one]
hMAO-A inhibition up to 10 μM: No

O=C(COc1ccc2c(=O)c(-c3ccc(O)cc3)coc2c1)Nc1ccccc1C(F)(F)F [PT-84, 2-[3-(4-hydroxyphenyl)-4-oxochromen-7-yloxy]-N-[2-(trifluoromethyl)phenyl]-acetamide]
hMAO-A inhibition up to 10 μM: No

O=c1c(-c2ccc(O)cc2)coc2cc(OCCc3ccccc3)ccc12 [PT-87, 3-(4-hydroxyphenyl)-7-(2-phenylethoxy)chromen-4-one]
hMAO-A inhibition up to 10 μM: No

O=c1c(-c2ccc(O)cc2)coc2cc(OCCOc3ccc(Cl)cc3)ccc12 [PT-89, 7-[2-(4-chlorophenoxy)ethoxy]-3-(4-hydroxyphenyl)chromen-4-one]
hMAO-A inhibition up to 10 μM: 34%

C[C@@H](NC(=O)COc1ccc2c(=O)c(-c3ccc(O)cc3)coc2c1)c1ccc(F)cc1 [PT-90, N-[(1R)-1-(4-fluorophenyl)ethyl]-2-[3-(4-hydroxyphenyl)-4-oxochromen-7-yloxy]acetamide]
hMAO-A inhibition up to 10 μM: No

O=c1c(-c2ccc(O)cc2)coc2cc(OCc3ccccn3)ccc12 [PT-91, 3-(4-hydroxyphenyl)-7-(2-pyridylmethoxy)chromen-4-one]
hMAO-A inhibition up to 10 μM: No

O=c1c(-c2ccc(O)cc2)coc2cc(OCCNCc3cccc(C(F)(F)F)c3)ccc12 [PT-99, 3-(4-hydroxyphenyl)-7-[2-({[3-(trifluoromethyl)phenyl]methyl}amino)ethoxy]chromen-4-one]
hMAO-A inhibition up to 10 μM: No

COC(=O)c1coc(COc2ccc3c(=O)c(-c4ccc(O)cc4)coc3c2)n1 [PT-101, methyl 2-{[3-(4-hydroxyphenyl)-4-oxochromen-7-yloxy]methyl}-1,3-oxazole-4-carboxylate]
hMAO-A inhibition up to 10 μM: No

O=C(O)c1coc(COc2ccc3c(=O)c(-c4ccc(O)cc4)coc3c2)n1 [PT-102, 2-{[3-(4-hydroxyphenyl)-4-oxochromen-7-yloxy]methyl}-1,3-oxazole-4-carboxylic acid]
hMAO-A inhibition up to 10 μM: No

From patent publication US8158810B2 (Gilead Sciences, Inc., priority 2006, dated 2012)
